One block for each compound: values may come before it.
Key:
[1] = test system: iPSC-derived cholangiocytes; assay: Cyst formation in 3D gel culture of iPSC-derived cholangiocytes; format: cell-based, human; details: normal iPSC-derived cholangiocytes
Description: After embedding in collagen/Matrigel culture, cyst formation was induced from the aggregates by the addition of forskolin for the first week of the two-week culture period (left). Without forskolin stimulation, the CF-iPSCs derived cholangiocytes formed branched ductal structure rather than hollow cysts (right).
CF-iPSCs derived cholangiocytes were maintained in the 3D gel conditions in the presence or absence of forskolin for the first week of the two weeks culture period (left graph). Normal iPS cells-derived cholangiocytes were maintained in the presence or absence of CFTR inhibitor for the first week of the two-week culture periods (right graph). […] Addition of the CFTR inhibitor to normal iPSC-derived cholangiocytes delayed cyst formation (right graph).
Both hiPSC lines generated hepatoblast populations with kinetics similar to those observed for wild type hPSCs (FIG. 24a, b). […] However, many of the cysts that developed from the patient iPSC we not completely hollow, but rather contained branched ductal structures (FIG. 19c).

CFTR = biological target: T1, CFTR (Homo sapiens, UniProt P13569); assay: Forskolin-induced swelling assay on hPSC-derived cystic structures; format: cell-based; details: hPSC-derived cysts
T1 construct: hPSC-derived cyst structures generated in 3D gels contain functional CFTR protein; endogenous in cells; host or cells: cysts from H9 hESC- and Y2-1 iPSC-derived cholangiocytes
Description: F/I stimulated cyst swelling was quantified using velocity imaging software. The total size of the cysts is normalized to that prior to F/I stimulation. Values are from three individual experiments.
With this assay, activation of the cAMP pathway by the addition of Forskolin/IBMX increases CFTR function resulting in fluid transport and swelling of the cyst. Swelling can be visualized following staining with calcein green, a cell-permeable fluorescent dye (FIG. 18a).

other kinases = details: in vitro kinase assays; cited from earlier work
hPSCs = assay: Definitive endoderm induction with CHIR99021 replacing Wnt3a, flow cytometry; format: cell-based, human; details: in combination with activin
Procedure: CHIR99021 is a selective inhibitor of GSK3 that has been reported to mimic the canonical Wnt signal pathway. CHIR99021 was tested as a replacement of wnt3a (e.g. added in combination with activin) in inducing Embryoid bodies and monolayer induction for definitive endoderm cells from hPSCs. […] At day 0, the cells were cultured in a RPMI based medium supplemented with glutamine (2 mM), MTG (4.5×10^−4 M: Sigma), activin A (100 ng/ml), CHIR99021 (0.3 μM) or Wnt3a (25 ng/ml). […] The media was changed every the other day. At day 7, the definitive endoderm was specified to a hepatic fate by treatment with FGF and BMP pathway agonists, as described above.

[2] = test system: day six EB-derived monolayer cells; assay: Extended activin treatment of EB-derived monolayer cells, flow cytometry; format: cell-based, human
Procedure: FIG. 3A is an intracellular flow cytometric analysis showing the proportion of SOX17^+ and FOXA2^+ cells in day six activin/Wnt3A-induced EBs as well as in monolayer populations derived from them. The monolayer populations were cultured either directly in the specification media (−activin) or for two days in activin (50 ng/ml) and then in the specification media (+activin). Populations were analyzed following two or four days culture in the specification media (total days eight and 10 for the −activin group and days 10 and 12 for the +activin group). Bars represent standard deviation (SD) of the mean of three independent experiments.
FIG. 3E is a flow cytometric analysis showing the proportion of CD31^+ CD90^+ and EPCAM^+ cells in monolayer populations derived from activin treated (day 26) and non-treated (day 24) endoderm. […] In contrast, a higher portion of EPCAM^+ cells was detected in the population derived from the activin-treated endoderm compared to the population generated from the non-treated cells (EPCAM: 90.7+/−2.7% vs 56.8+/−7.3%; P<0.01, n=3).
It was not known if prolonged signaling would be useful with human PSC. The effect of increasing the duration of this signaling pathway was extended in the human system by culturing the monolayer cells for two days in activin prior to the FGF/BMP4 specification step. […] Without being bound by theory, since the total cell number was lower in the treated population (FIG. 3b) it is possible that activin signaling at this stage preferentially supports the survival of endodermal cells.
(§1) Media was changed every 3 days.
Flow cytometric analyses were performed as described previously^45. For cell surface markers, staining was carried out in PBS with 10% FCS. For intracellular proteins, staining was performed on cells fixed with 4% paraformaldehyde (Electron Microscopy Science, Hatfield, PA, USA) in PBS. Cells were permeabilized with 90% ice-cold methanol for 20 minutes for Sox17 and FoxA2 staining as previously described^45. Albumin and alpha-fetoprotein staining was performed in PBS with 10% FCS and 0.5% saponin (Sigma). Stained cells were analyzed using an LSRII flow cytometer (BD).

[3] = test system: hESC-derived embryoid bodies; assay: Endoderm induction in hESC-derived embryoid bodies, flow cytometry; format: cell-based, human; details: day six EBs
Procedure: Similar to protocols using monolayer cultures^16, it involves specific steps that recapitulate the critical stages of liver development in the early embryo. EBs are formed from small aggregates by culture for 24 hours in low levels of BMP4, as previously described^18. The EBs are subsequently exposed to high concentrations of activin A (hereafter referred to as activin) for five days to induce definitive endoderm, a population defined by expression of the surface markers CXCR4, CKIT and EPCAM and the transcription factors SOX17 and FOXA2.
Addition of Wnt3A to the activin-induced EB cultures led to reproducible increases in the proportion of CXCR4^+, SOX17^+ and FOXA2^+ cells within the EBs (FIG. 1c). With the increase in CXCR4 expression, the proportion of CKIT^+CXCR4^+ and CXCR4^+EPCAM^+ cells increased to greater than 95% of the population. […] Endoderm induction in the EBs was influenced by the base culture media used. StemPro34 supported more efficient endoderm induction than neural basal media that we used previously (FIG. 1f). The induction of highly enriched endoderm is an important first step in the efficient and reproducible generation of hepatocyte-like cells from hPSCs.
as §1
Flow cytometric analyses were performed as described previously^45. […] Stained cells were analyzed using an LSRII flow cytometer (BD).

[4] = test system: H9 hESCs, H1 hESCs and 38-2 iPSCs; assay: Hepatic specification from other hPSC lines, flow cytometry; format: cell-based, human
Description: To determine whether the approach detailed above is broadly applicable to different human pluripotent stem cell lines the protocol was used to differentiate the hESC lines H9 and H1 as well as an induced pluripotent cell (iPSC) line 38-2 to a hepatic fate. Day six EBs from all three lines contained high proportions of CKIT^+CXCR4^+ and CKIT^EPCAM* cells following the Wnt3a/activin induction step (FIG. 7a). Although the proportion of EPCAIVT cells was high in all EBs, the H9-derived cells expressed substantially higher levels of EPCAM than cells generated from the other lines. The levels of EPCAM expression correlated with the degree of endoderm induction, as greater than 95% of the H9-derived population expressed SOX17^+ and FOXA2^+ whereas only 65-70% of the iPSC-derived cells expressed these transcription factors (FIG. 7a). These findings indicate that surface marker analysis alone is not sufficient to monitor endoderm development and that quantitative analyses of SOX17 and FOXA2 expression is required to measure induction of this germ layer. As observed with the HES2 cells, extended activin/nodal signaling improved hepatic development of the CKIT^+CXCR4^+ population from each line (FIG. 7b). However, the duration of activin treatment necessary to generate significant levels of ALB expression varied between cell lines. Whereas higher levels of ALB expression were achieved following two days of activin treatment with H9-derived cells, both H1 and 38-2 cells required four days of additional activin signaling. With this treatment, it was possible to generate cultures consisting of 90%, 85% and 70% ALB^+ cells from the H9, H1 and 38-2 cell lines, respectively (FIG. 7c).
as §1
Flow cytometric analyses were performed as described previously^45. For cell surface markers, staining was carried out in PBS with 10% FCS. For intracellular proteins, staining was performed on cells fixed with 4% paraformaldehyde (Electron Microscopy Science, Hatfield, PA, USA) in PBS. […] Stained cells were analyzed using an LSRII flow cytometer (BD).

[5] = day 10/12, two days activin 50 ng/ml before specification media
[6] = monolayer from activin treated endoderm, day 26

T1 sequence (P13569 whole entry): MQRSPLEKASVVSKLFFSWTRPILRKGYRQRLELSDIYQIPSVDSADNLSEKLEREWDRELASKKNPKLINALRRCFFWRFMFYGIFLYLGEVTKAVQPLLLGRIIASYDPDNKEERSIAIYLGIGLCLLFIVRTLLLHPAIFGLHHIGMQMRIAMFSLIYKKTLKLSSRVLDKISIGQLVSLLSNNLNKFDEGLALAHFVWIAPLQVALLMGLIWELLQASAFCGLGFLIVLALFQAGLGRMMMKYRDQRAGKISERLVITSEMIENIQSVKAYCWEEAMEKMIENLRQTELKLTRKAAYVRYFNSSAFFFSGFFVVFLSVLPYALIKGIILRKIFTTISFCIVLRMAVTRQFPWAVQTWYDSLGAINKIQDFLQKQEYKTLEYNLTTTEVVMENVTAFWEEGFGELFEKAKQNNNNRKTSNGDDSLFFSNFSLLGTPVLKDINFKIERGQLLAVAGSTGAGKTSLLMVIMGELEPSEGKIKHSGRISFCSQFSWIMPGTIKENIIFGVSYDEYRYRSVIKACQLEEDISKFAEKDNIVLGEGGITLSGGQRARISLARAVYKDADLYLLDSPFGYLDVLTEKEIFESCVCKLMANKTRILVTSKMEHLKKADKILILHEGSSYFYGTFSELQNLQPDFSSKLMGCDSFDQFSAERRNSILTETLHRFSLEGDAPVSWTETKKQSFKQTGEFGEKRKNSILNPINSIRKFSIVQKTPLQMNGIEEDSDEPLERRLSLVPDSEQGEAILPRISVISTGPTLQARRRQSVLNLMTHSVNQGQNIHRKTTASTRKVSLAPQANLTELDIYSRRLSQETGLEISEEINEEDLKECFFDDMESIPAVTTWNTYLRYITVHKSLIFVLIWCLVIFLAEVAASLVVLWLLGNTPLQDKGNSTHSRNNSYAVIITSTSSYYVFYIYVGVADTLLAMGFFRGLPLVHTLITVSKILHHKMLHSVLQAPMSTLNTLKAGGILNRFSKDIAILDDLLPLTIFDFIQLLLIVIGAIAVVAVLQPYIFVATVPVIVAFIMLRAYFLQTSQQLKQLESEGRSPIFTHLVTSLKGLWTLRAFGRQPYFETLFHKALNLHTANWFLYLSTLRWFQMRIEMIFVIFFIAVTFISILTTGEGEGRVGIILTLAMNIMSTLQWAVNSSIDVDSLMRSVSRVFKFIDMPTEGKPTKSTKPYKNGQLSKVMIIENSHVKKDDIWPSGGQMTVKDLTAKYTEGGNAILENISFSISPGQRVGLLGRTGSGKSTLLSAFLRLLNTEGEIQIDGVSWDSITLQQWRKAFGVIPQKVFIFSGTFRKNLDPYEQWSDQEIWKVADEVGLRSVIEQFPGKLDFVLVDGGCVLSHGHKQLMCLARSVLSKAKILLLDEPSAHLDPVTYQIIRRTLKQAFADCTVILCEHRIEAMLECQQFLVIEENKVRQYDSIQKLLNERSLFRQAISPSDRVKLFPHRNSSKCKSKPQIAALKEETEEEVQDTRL

effect on Forskolin/IBMX induced swelling (CFTR): blocked
Compound: O=C(O)c1ccc(/C=C2\SC(=S)N(c3cccc(C(F)(F)F)c3)C2=O)cc1 [CFTRinh-172]
cyst formation [1]: delayed

Compound: Cc1c[nH]c(-c2cnc(NCCNc3ccc(C#N)cn3)nc2-c2ccc(Cl)cc2Cl)n1 [CHIR 99021]
effect on other kinases (other kinases): little effect
proportion of CKIT+CXCR4+ and CXCR4+EPCAM+ cells (hPSCs): greater than 95%

Compound: activin: Activin A, nodal agonist
proportion of FOXA2+ cells [2, 5]: 92.7+/−2.5%
proportion of SOX17+ cells [2, 5]: 73.3+/−7.5%
proportion of FOXA2+ cells ([2]; days 8/10, two days activin 50 ng/ml before specification media): 96.1+/−0.9%
proportion of CD31+ cells [2, 6]: 0.49+/−0.11%
proportion of CD90+ cells [2, 6]: 8.5+/−1.19%
proportion of EPCAM+ cells [2, 6]: 90.7+/−2.7%
proportion co-expressing CXCR4 and CKIT or CXCR4 and EPCAM [3]: greater than 90%
ALB+ cells ([4]; 38-2, four days additional activin): 70%
ALB+ cells ([4]; H1, four days additional activin): 85%
ALB+ cells ([4]; H9, two days additional activin): 90%
